Test results from patent US20260034123A1 (Cedilla Therapeutics, Inc., priority 2022, published 2026).

Legend:
CDK2/Cyclin E1 = CDK2/Cyclin E1 (Homo sapiens, UniProt P24941); test: Caliper LabChip EZ Reader mobility shift assay; assay type: biochemical; settings: 2.5 nM CDK2/Cyclin E1(14-475), 100 μM ATP, 30 min preincubation; read-out: Caliper Assay (CDK2/CCNE1): IC50
Description: Inhibition of CDK2/Cyclin E1 activity in the presence of compounds of the present disclosure was evaluated using a Caliper LabChip® EZ Reader mobility shift assay. In the assay, activated CDK2/Cyclin E1 catalyzes the phosphorylation of a fluorescently tagged peptide 5-FAM-QSPKKG-CONH2 (PerkinElmer, FL Peptide 18) which induces a difference in capillary electrophoresis mobility. The peptide substrate and product were measured, and the conversion ratio was used to determine the inhibition (as % activity and IC50 values) of CDK2/Cyclin E1. Reactions contained 50 mM HEPES pH 7.5, 10 mM MgCl2, 1 mM EDTA, 2 mM DTT, 0.01% Brij35, 0.5 mg/mL BSA, 0.1% DMSO, 2.5 nM CDK2/Cyclin E1(14-475), 100 μM ATP, and 1.5 μM fluorescent peptide substrate.
Dose titrations of inhibitors in 100% DMSO were combined with 3.25 nM CDK2/Cyclin E1(14-475) and 130 μM of ATP in reaction buffer. The mixtures were incubated for 30 minutes before the addition of fluorescent peptide substrate to initiate the kinase reaction. The final conditions were 2.5 nM CDK2/Cyclin E1(14-475), 100 μM ATP, and 1.5 μM fluorescent peptide. The reactions were stopped after 100 minutes with the addition of EDTA (6 mM final EDTA concentration). The stopped reactions were analyzed on a Caliper LabChip® EZ Reader 11. The conversion ratios were normalized to yield % activity, plotted against compound concentration, and fit to a four-parameter equation to determine the IC50 for each compound.

Kuramochi cells RB-WT = test: IncuCyte Kuramochi cell proliferation assay, RB-WT; assay type: cell-based; settings: 72 hours, cell count
Outline: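 mApple-H2B-labelled Kuramochi cells were treated with a 10-point, half-log series (top 20 µM) and imaged at 0 and 72 h. Fluorescent nuclei were counted, and the 0–72 h fold change was normalized to DMSO wells. GI50 came from dose-response fits.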

Row | SMILES | IC50 (CDK2/Cyclin E1) [µM] | IC50 (Kuramochi cells RB-WT) [µM]
1 | O=C(c1cncs1)N1C[C@@H](COCc2cccc(-c3ccc(C4CC4)cc3)n2)C2(CN(CC3CCCO3)C2)C1 (stereo partly drawn) [Compound I-8, ((8S)-8-(((6-(4-cyclopropylphenyl)pyridin-2-yl)methoxy)methyl)-2-((tetrahydrofuran-2-yl)methyl)-2,6-diazaspiro[3.4]octan-6-yl)(thiazol-5-yl)methanone] | > 10 | > 10
2 | CC1(C)C[C@@H]1C(=O)N1CC2(CN(CC3CCCO3)C[C@H]2CNC(=O)c2cccc(-c3ccc(C(F)(F)F)cc3)n2)C1 (stereo partly drawn) [Compound I-9, N-(((8R)-2-((S)-2,2-dimethylcyclopropane-1-carbonyl)-6-((tetrahydrofuran-2-yl)methyl)-2,6-diazaspiro[3.4]octan-8-yl)methyl)-6-(4-(trifluoromethyl)phenyl)picolinamide] | > 10 | > 10
3 | COc1ccccc1-c1cccc(C(=O)NC[C@@H]2CN(CC3CCCO3)CC23CN(C(=O)[C@H]2CC2(C)C)C3)n1 (stereo partly drawn) [Compound I-10, N-(((8R)-2-((S)-2,2-dimethylcyclopropane-1-carbonyl)-6-((tetrahydrofuran-2-yl)methyl)-2,6-diazaspiro[3.4]octan-8-yl)methyl)-6-(2-methoxyphenyl)picolinamide] | 1 to 10 | > 10
4 | O=C(c1cncs1)N1C[C@@H](COCc2cccc(-c3ccc(C(F)(F)F)cc3)n2)C2(CN(CC3CCCO3)C2)C1 (stereo partly drawn) [Compound I-11, ((8S)-2-((Tetrahydrofuran-2-yl)methyl)-8-(((6-(4-(trifluoromethyl)phenyl)pyridin-2-yl)methoxy)methyl)-2,6-diazaspiro[3.4]octan-6-yl)(thiazol-5-yl)methanone] | > 10 | > 10
5 | O=C([C@H]1CC1(F)F)N1CC2(CN(Cc3cncs3)C[C@H]2COCc2cccc(-c3ccc(C(F)(F)F)cc3)n2)C1 [Compound I-12, ((R)-2,2-difluorocyclopropyl)((S)-6-(thiazol-5-ylmethyl)-8-(((6-(4-(trifluoromethyl)phenyl)pyridin-2-yl)methoxy)methyl)-2,6-diazaspiro[3.4]octan-2-yl)methanone] | > 10 | > 10
6 | CC1(C)C[C@@H]1C(=O)N1CC2(CN(C(=O)c3cncs3)C[C@H]2COC(COC2CCC(F)(F)CC2)c2cccc(C3CCOCC3)n2)C1 (stereo partly drawn) [Compound I-13, ((8S)-8-((2-((4,4-difluorocyclohexyl)oxy)-1-(6-(tetrahydro-2H-pyran-4-yl)pyridin-2-yl)ethoxy)methyl)-2-((S)-2,2-dimethylcyclopropane-1-carbonyl)-2,6-diazaspiro[3.4]octan-6-yl)(thiazol-5-yl)methanone] | 0.1 to 1 | > 10
7 | CC(OC[C@@H]1CN(C(=O)c2cncs2)CC12CN(C(=O)[C@H]1CC1(C)C)C2)c1cccc(C2CCOCC2)n1 (stereo partly drawn) [Compound I-14, ((S)-2-((S)-2,2-dimethylcyclopropane-1-carbonyl)-8-((1-(6-(tetrahydro-2H-pyran-4-yl)pyridin-2-yl)ethoxy)methyl)-2,6-diazaspiro[3.4]octan-6-yl)(thiazol-5-yl)methanone] | 1 to 10 | > 10
8 | O=C(c1cncs1)N1C[C@@H](COCc2cccc(-c3ccc(C(F)(F)F)cc3)n2)C2(CN(CC3COC3)C2)C1 [Compound I-15, (S)-(2-(oxetan-3-ylmethyl)-8-(((6-(4-(trifluoromethyl)phenyl)pyridin-2-yl)methoxy)methyl)-2,6-diazaspiro[3.4]octan-6-yl)(thiazol-5-yl)methanone] | > 10 | > 10
9 | CC(C)(C)CN1CC2(C1)CN(C(=O)c1cncs1)C[C@H]2COCc1cccc(-c2ccc(C(F)(F)F)cc2)n1 [Compound I-16, (S)-(2-neopentyl-8-(((6-(4-(trifluoromethyl)phenyl)pyridin-2-yl)methoxy)methyl)-2,6-diazaspiro[3.4]octan-6-yl)(thiazol-5-yl)methanone] | > 10 | 5 to 10
10 | CC(C)(C)CN1CC2(C1)CN(C(=O)c1cnccn1)C[C@H]2COCc1cccc(-c2ccc(C(F)(F)F)cc2)n1 [Compound I-17, (S)-(2-neopentyl-8-(((6-(4-(trifluoromethyl)phenyl)pyridin-2-yl)methoxy)methyl)-2,6-diazaspiro[3.4]octan-6-yl)(pyrazin-2-yl)methanone] | > 10 | > 10
11 | CC1(C)C[C@@H]1C(=O)N1CC2(CN(C(=O)c3cnccn3)C[C@H]2COCc2cccc(-c3ccc(C(F)(F)F)cc3)n2)C1 [Compound I-18, ((S)-2-((S)-2,2-dimethylcyclopropane-1-carbonyl)-8-(((6-(4-(trifluoromethyl)phenyl)pyridin-2-yl)methoxy)methyl)-2,6-diazaspiro[3.4]octan-6-yl) (pyrazin-2-yl)methanone] | 0.01 to 0.1 | > 10
12 | CC1(C)C[C@@H]1C(=O)N1CC2(CN(Cc3cnccn3)C[C@H]2COCc2cccc(-c3ccc(C(F)(F)F)cc3)n2)C1 [Compound I-19, ((S)-2,2-dimethylcyclopropyl)((S)-6-(pyrazin-2-ylmethyl)-8-(((6-(4-(trifluoromethyl)phenyl)pyridin-2-yl)methoxy)methyl)-2,6-diazaspiro[3.4]octan-2-yl) methanone] | > 10 | > 10
13 | CC1(C)C[C@@H]1C(=O)N1CC2(CN(C(=O)c3cncs3)C[C@H]2COCc2cccc(-c3cccnc3)n2)C1 [Compound I-20, ((S)-8-(([2,3′-bipyridin]-6-ylmethoxy)methyl)-2-((S)-2,2-dimethylcyclopropane-1-carbonyl)-2,6-diazaspiro[3.4]octan-6-yl)(thiazol-5-yl)methanone] | 0.1 to 1 | > 10
14 | CC1(C)C[C@@H]1C(=O)N1CC2(CN(C(=O)c3cncs3)C[C@H]2COCc2cccc(-c3ccc(C(F)(F)F)nc3)n2)C1 [Compound I-21, ((S)-2-((S)-2,2-dimethylcyclopropane-1-carbonyl)-8-(((6′-(trifluoromethyl)-[2,3′-bipyridin]-6-yl)methoxy)methyl)-2,6-diazaspiro[3.4]octan-6-yl)(thiazol-5-yl)methanone] | 0.1 to 1 | > 10
15 | CC1(C)C[C@@H]1C(=O)N1CC2(CN(C(=O)c3cncs3)C[C@H]2COc2cccc3c(C4CCOCC4)cccc23)C1 [Compound I-22, ((S)-2-((S)-2,2-dimethylcyclopropane-1-carbonyl)-8-(((5-(tetrahydro-2H-pyran-4-yl)naphthalen-1-yl)oxy)methyl)-2,6-diazaspiro[3.4]octan-6-yl)(thiazol-5-yl)methanone] | 0.1 to 1 | > 10
16 | CC1(C)C[C@@H]1C(=O)N1CC2(CN(C(=O)c3cncs3)C[C@H]2COc2cncc3c(C4CCOCC4)cccc23)C1 [Compound I-23, ((S)-2-((S)-2,2-dimethylcyclopropanecarbonyl)-8-(((8-(tetrahydro-2H-pyran-4-yl)isoquinolin-4-yl)oxy)methyl)-2,6-diazaspiro[3.4]octan-6-yl)(thiazol-5-yl)methanone] | 1 to 10 | > 10
17 | CC1(C)C[C@@H]1C(=O)N1CC2(CN(C(=O)c3cncs3)C[C@H]2COCc2cccc(C3CCC(OC(F)(F)F)CC3)n2)C1 (stereo partly drawn) [Compound I-24, ((S)-2-((S)-2,2-dimethylcyclopropane-1-carbonyl)-8-(((6-(4-(trifluoromethoxy)cyclohexyl)pyridin-2-yl)methoxy)methyl)-2,6-diazaspiro[3.4]octan-6-yl)(thiazol-5-yl) methanone] | 0.01 to 0.1 | 5 to 10
18 | CC1(C)C[C@@H]1C(=O)N1CC2(CN(C(=O)c3cncs3)C[C@H]2COc2nccc3c(C4CCOCC4)cccc23)C1 [Compound I-25, ((S)-2-((S)-2,2-dimethylcyclopropanecarbonyl)-8-(((5-(tetrahydro-2H-pyran-4-yl)isoquinolin-1-yl)oxy)methyl)-2,6-diazaspiro[3.4]octan-6-yl)(thiazol-5-yl)methanone] | 0.1 to 1 | > 10
19 | CN(Cc1cccc(C2CCOCC2)n1)C[C@@H]1CN(C(=O)c2cncs2)CC12CN(C(=O)[C@H]1CC1(C)C)C2 [Compound I-26, (2-((S)-2,2-dimethylcyclopropanecarbonyl)-8-((methyl((6-(tetrahydro-2H-pyran-4-yl)pyridin-2-yl)methyl)amino)methyl)-2,6-diazaspiro[3.4]octan-6-yl)(thiazol-5-yl) methanone] | > 10 | > 10
20 | CC1(C)C[C@@H]1C(=O)N1CC2(CN(C(=O)c3cncs3)C[C@H]2COCc2cc3ccccc3c(C3CCOCC3)n2)C1 [Compound I-28, ((S)-2-((S)-2,2-dimethylcyclopropane-1-carbonyl)-8-(((1-(tetrahydro-2H-pyran-4-yl)isoquinolin-3-yl)methoxy)methyl)-2,6-diazaspiro[3.4]octan-6-yl)(thiazol-5-yl)methanone] | 0.1 to 1 | > 10
